Assay results: patent US10683293B2, “Optionally fused heterocyclyl-substituted derivatives of pyrimidine useful for the treatment of inflammatory, metabolic, oncologic and autoimmune diseases” (NUEVOLUTION A/S, priority 2014, dated 2020)

Molecular target: T1, ligand binding domain of human RORγ (Homo sapiens, UniProt P51449)
T1 construct: host or cells: HEK293t
T1 sequence (P51449 269-508 limits assumed): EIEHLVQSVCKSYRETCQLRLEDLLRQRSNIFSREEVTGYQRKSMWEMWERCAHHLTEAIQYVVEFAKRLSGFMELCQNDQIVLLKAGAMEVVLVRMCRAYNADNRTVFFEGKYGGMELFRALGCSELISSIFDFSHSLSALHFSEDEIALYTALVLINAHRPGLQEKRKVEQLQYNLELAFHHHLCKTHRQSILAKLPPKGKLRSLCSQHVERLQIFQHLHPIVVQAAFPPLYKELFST
Assay: RORγ Reporter Assay (Gal4)
Assay type: cell-based
Conditions: HEK-293T, 1 μM test compound, HEK293t RORγ reporter cells, 24 hour; read-out: Gal4 activity range @ 1 μM (% inhibition)
Procedure: (§1) The activity of the compounds was evaluated using a Fluorescence Polarization (FP) Assay and, RORγ Reporter assay (also referred to as Gal4 assay). The FP assay is an in vitro assay monitoring binding within the ligand binding pocket. The RORγ and the Th17 assays (another suitable assay) are both cell-based assays monitoring functional activity of the compound assayed.
RORγ Reporter Assay (Gal4)
Cell-based RORγ functional assays were performed using a commercially available assay product (INDIGO Biosciences, State College, Pa., USA; product # IB04001). The RORγ reporter cells are HEK293t cells transfected with one vector that provides high level constitutive expression of a hybrid protein comprised of the yeast Gal4-DNA binding domain fused to the ligand binding domain of human RORγ, and a second vector comprising the firefly luciferase cDNA functionally linked to the upstream activation sequence (UAS) of yeast Gal4. A suspension of RORγ Reporter Cells was prepared using the protocol and culture medium provided in the kit product, and 100 μl of the Reporter Cell suspension was then dispensed into wells of a white, collagen-treated, 96-well assay plate. Concentrated stocks of test compounds were prepared in DMSO, then further diluted using media provided in the kit to generate ‘2×-concentration’ treatment media. 100 μl of medium for each respective treatment concentration dispensed into triplicate assay wells, thereby combining with the reporter cells. All media formulations contained 10% charcoal stripped Fetal Bovine Serum, but are otherwise proprietary to INDIGO Biosciences. Final treatment concentrations for each test compound were 1,000 nM and 100 nM, each with 0.1% residual DMSO. Separate control treatments were media supplemented with vehicle only (0.1% DMSO) to determine the constitutive level of RORγ activity in the reporter cells, and the reference inverse-agonist ursolic acid (f.c. 6,000 nM to 8.2 nM in 3-fold decrements) to establish a positive control inverse-agonist dose response. Assay plates were placed in a 37° C., 5% CO2, 85% humidity incubator for 24 hour. Treatment media were then discarded, 100 μl of luciferase detection reagent was added to each well, and relative light units (RLUs) were quantified from each assay well using a plate reading luminometer. Values of average RLU+/−standard deviation were computed for all treatment sets, followed by the calculations of fold-reduction: [Average RLUVehicle/Average RLUTest Cmpd]. Percent-reduction of RORγ activity in response to respective test compound treatments was calculated: [100*(1−[Ave RLUTest Cmpd/Ave RLUVehicle)] where the theoretical minimum reduction (0% reduction) derives from Vehicle treatment only, no treatment compound. In some aspects it may be of interest to provide compounds with selective modulation of RORγ for example compounds that are selective to RORγ over RORα, compounds that are selective for RORγ versus RORPβ, and compounds that are selective for RORγ versus BOTH RORα and RORPβ. It may also be of interest to provide compounds that are selective for RORγ versus further nuclear hormone receptors such as CAR1, FXR, GR, LXRα, LXRβ, PPARα, PXR, RARα, RXRα, TRα, VDR. It is apparent to those skilled in the art that these nuclear hormone receptors are merely examples, and that selectivity against other nuclear receptors may also be of interest. It may for example be of interest to provide compounds that modulate RORγ and one or more further nuclear hormone receptors, as well as compounds that modulate both RORγ and RORα, or RORγ and RORβ. It may also be of interest to provide compounds that modulate RORγ and BOTH RORα and RORP, as well as compounds that modulate both RORγ and one or more further nuclear hormone receptors such as CAR1, FXR, GR, LXRα, LXRβ, PPARα, PXR, RARα, RXRα, TRα, VDR. It is apparent to those skilled in the art that these nuclear hormone receptors are merely examples, and that modulation of even other nuclear receptors may also be of interest. […]

Question: Which inhibition at 1 µM does the source give for `CS(=O)(=O)CC1(CNc2ncnc(N(Cc3ccc(C(F)(F)F)cc3)C3CC3)c2F)CCOCC1` [Example A49, N6-cyclopropyl-5-fluoro-N4-[[4-(methylsulfonylmethyl)tetrahydro-pyran-4-yl]methyl]-N6-[[4-(trifluoromethyl)phenyl]methyl] pyrimidine-4,6-diamine] here?
Answer: > 80%

Same assay, conditions: RORγ Reporter Assay (Gal4), HEK293t reporter cells, compound at 0.1 μM; values are activity range bounds

Question: Which “Gal4 activity range @ 0.1 μM (% inhibition)” value does the source give for `CS(=O)(=O)CC1(CNc2ncnc(N(Cc3ccc(C(F)(F)F)cc3)C3CC3)c2F)CCOCC1` [Example A49, N6-cyclopropyl-5-fluoro-N4-[[4-(methylsulfonylmethyl)tetrahydro-pyran-4-yl]methyl]-N6-[[4-(trifluoromethyl)phenyl]methyl] pyrimidine-4,6-diamine] here?
Answer: >80 % inhibition

Molecular target: T2, human RORγt (Ligand Binding Domain) (Homo sapiens, UniProt P51449)
T2 construct: purchased Crelux (Planegg, Germany) batch no PC5032-1
T2 sequence (P51449 269-508 limits assumed): T1 sequence (P51449 269-508 limits assumed)
Assay: Fluorescence Polarization (FP) Assay
Conditions: 100 nM human RORγt LBD, 25 nM TAMRA probe, values are activity range bounds
Procedure: as §1
Fluorescence Polarization (FP) Assay
The total volume was 25 μl, in a black Perkin Elmer OptiPlate. As negative control, 1 μl DMSO was used. […] The probe is a fluorescently labeled (TAMRA) RORγt ligand identified by Nuevolution with a total molecular weight of 910 g/mole as shown in Graph A in FIG. 1.

Question: For `Fc1c(NCc2ccsc2)ncnc1N(Cc1ccc(C(F)(F)F)cc1)C1CC1` [Example A21, N6-cyclopropyl-5-fluoro-N4-(3-thienylmethyl)-N6-[[4-(trifluoromethyl)phenyl]methyl] pyrimidine-4,6-diamine], which IC50 is on record?
Answer: < 1000 nM

Question: Which IC50 does the source give for `OCCC1(CNc2ncnc(N(Cc3ccc(C(F)(F)F)cc3)C3CC3)c2F)CCOCC1` [Example A22, 2-[4-[[[6-[cyclopropyl-[[4-(trifluoromethyl)phenyl]methyl]amino]-5-fluoro-pyrimidin-4-yl]amino]methyl]tetrahydropyran-4-yl]ethanol] here?
Answer: < 500 nM

Question: Which IC50 does the source give for `Fc1c(NCc2ccc(-c3nnn[nH]3)cc2)ncnc1N(Cc1ccc(C(F)(F)F)cc1)C1CC1` [Example A23, N6-cyclopropyl-5-fluoro-N4-[[4-(1H-tetrazol-5-yl)phenyl]methyl]-N6-[[4-(trifluoromethyl)phenyl]methyl] pyrimidine-4,6-diamine] here?
Answer: < 500 nM

Question: Which IC50 does the source give for `COc1ccc(CN(C)c2ncnc(N(Cc3ccc(C(F)(F)F)cc3)C3CC3)c2F)cn1` [Example A24, N6-cyclopropyl-5-fluoro-N4-[(6-methoxy-3-pyridyl)methyl]-N4-methyl-N6-[[4-(trifluoromethyl)phenyl]methyl] pyrimidine-4,6-diamine] here?
Answer: < 500 nM

Question: For `COc1ccc(CNc2ncnc(N(Cc3ccc(C(F)(F)F)cc3)C3CC3)c2F)cn1` [Example A25, N6-cyclopropyl-5-fluoro-N4-[(6-methoxy-3-pyridyl)methyl]-N6-[[4-(trifluoromethyl)phenyl]methyl] pyrimidine-4,6-diamine], which IC50 is on record?
Answer: < 500 nM

Question: Which IC50 does the source give for `OCC1(CNc2ncnc(N(Cc3ccc(C(F)(F)F)cc3)C3CC3)c2F)COC1` [Example A26, [3-[[[6-[cyclopropyl-[[4-(trifluoromethyl)phenyl]methyl]amino]-5-fluoro-pyrimidin-4-yl]amino]methyl]oxetan-3-yl]methanol] here?
Answer: < 500 nM

Question: With `CN(C)C(=O)C1(CNc2ncnc(N(Cc3ccc(C(F)(F)F)cc3)C3CC3)c2F)CCCC1` [Example A27, 1-[[[6-[cyclopropyl-[[4-(trifluoromethyl)phenyl]methyl]amino]-5-fluoro-pyrimidin-4-yl]amino]methyl]-N,N-dimethyl-cyclopentanecarboxamide] as the molecule, how does the IC50 read?
Answer: < 1000 nM

Question: Which IC50 does the source give for `Fc1c(NCC2CCCS2)ncnc1N(Cc1ccc(C(F)(F)F)cc1)C1CC1` (stereo not shown) [Example A28, N6-cyclopropyl-5-fluoro-N4-(tetrahydrothiophen-2-ylmethyl)-N6-[[4-(trifluoromethyl)phenyl]methyl] pyrimidine-4,6-diamine] here?
Answer: < 1000 nM

Question: With `COC1(CNc2ncnc(N(Cc3ccc(C(F)(F)F)cc3)C3CC3)c2F)CCOCC1` [Example A29, N6-cyclopropyl-5-fluoro-N4-[(4-methoxytetrahydropyran-4-yl)methyl]-N6-[[4-(trifluoromethyl)phenyl]methyl] pyrimidine-4,6-diamine] as the molecule, how does the IC50 read?
Answer: < 500 nM

Question: `OC1(CNc2ncnc(N(Cc3ccc(C(F)(F)F)cc3)C3CC3)c2F)CCSCC1` [Example A30, 4-[[[6-[cyclopropyl-[[4-(trifluoromethyl)phenyl]methyl]amino]-5-fluoro-pyrimidin-4-yl]amino]methyl]tetrahydrothiopyran-4-ol] was tested. Which IC50 did it give?
Answer: < 500 nM

Question: For `CS(=O)(=O)CC1(CNc2ncnc(N(Cc3ccc(C(F)(F)F)cc3)C3CC3)c2F)CCOCC1` [Example A31, N6-cyclopropyl-5-fluoro-N4-[[4-(methylsulfonylmethyl)tetrahydro-pyran-4-yl]methyl]-N6-[[4-(trifluoromethyl)phenyl]methyl] pyrimidine-4,6-diamine], which IC50 is on record?
Answer: < 500 nM

Question: How did the IC50 turn out when `CC1CCC(CNc2ncnc(N(Cc3ccc(C(F)(F)F)cc3)C3CC3)c2F)CC1` (stereo not shown) [Example A32, N6-cyclopropyl-5-fluoro-N4-[(4-methylcyclohexyl)methyl]-N6-[[4-(trifluoromethyl)phenyl]methyl] pyrimidine-4,6-diamine] was run?
Answer: < 500 nM

Question: For `CC(C)C1CCC(CNc2ncnc(N(Cc3ccc(C(F)(F)F)cc3)C3CC3)c2F)CC1` (stereo not shown) [Example A33, N6-cyclopropyl-5-fluoro-N4-[(4-isopropylcyclohexyl)methyl]-N6-[[4-(trifluoromethyl)phenyl]methyl] pyrimidine-4,6-diamine], which IC50 is on record?
Answer: < 500 nM

Question: With `O=S1(=O)CCC(CNc2ncnc(N(Cc3ccc(C(F)(F)F)cc3)C3CC3)c2F)CC1` [Example A34, N6-cyclopropyl-N4-[(1,1-dioxothian-4-yl)methyl]-5-fluoro-N6-[[4-(trifluoromethyl)phenyl]methyl] pyrimidine-4,6-diamine] as the molecule, how does the IC50 read?
Answer: < 500 nM

Question: `O=S1(=O)CCOC(CNc2ncnc(N(Cc3ccc(C(F)(F)F)cc3)C3CC3)c2F)C1` (stereo not shown) [Example A35, N6-cyclopropyl-N4-[(4,4-dioxo-1,4-oxathian-2-yl)methyl]-5-fluoro-N6-[[4-(trifluoromethyl)phenyl]methyl] pyrimidine-4,6-diamine] was tested. Which IC50 did it give?
Answer: < 500 nM

Question: How did the IC50 turn out when `O=C(O)CC1CCC(CNc2ncnc(N(Cc3ccc(C(F)(F)F)cc3)C3CC3)c2F)CC1` (stereo not shown) [Example A36, 2-[4-[[[6-[cyclopropyl-[[4-(trifluoromethyl)phenyl]methyl]amino]-5-fluoro-pyrimidin-4-yl]amino]methyl]cyclohexyl]acetic acid] was run?
Answer: < 500 nM

Question: How did the IC50 turn out when `CS(=O)(=O)Cc1ccc(CNc2ncnc(N(Cc3ccc(C(F)(F)F)cc3)C3CC3)c2F)cc1` [Example A37, N4-cyclopropyl-5-fluoro-N6-[[4-(methylsulfonylmethyl)phenyl]methyl]-N4-[[4-(trifluoromethyl)phenyl]methyl] pyrimidine-4,6-diamine] was run?
Answer: < 500 nM

Question: With `COc1cc(CNc2ncnc(N(Cc3ccc(C(F)(F)F)cc3)C3CC3)c2F)ccn1` [Example A38, N4-cyclopropyl-5-fluoro-N6-[(2-methoxy-4-pyridyl)methyl]-N4-[[4-(trifluoromethyl)phenyl]methyl] pyrimidine-4,6-diamine] as the molecule, how does the IC50 read?
Answer: < 500 nM

Question: For `N#Cc1ccc(CNc2ncnc(N(Cc3ccc(C(F)(F)F)cc3)C3CC3)c2F)cc1` [Example A39, 4-[[[6-[cyclopropyl-[[4-(trifluoromethyl)phenyl]methyl]amino]-5-fluoro-pyrimidin-4-yl]amino]methyl]benzonitrile], which IC50 is on record?
Answer: < 500 nM

Question: With `Fc1c(NCc2ccccc2)ncnc1N(Cc1ccc(C(F)(F)F)cc1)C1CC1` [Example A40, N6-benzyl-N4-cyclopropyl-5-fluoro-N4-[[4-(trifluoromethyl)phenyl]methyl] pyrimidine-4,6-diamine] as the molecule, how does the IC50 read?
Answer: < 1000 nM
